The record followed here is ChEMBL document CHEMBL5550157, “Synthesis and biological evaluation of orally active anti-Trypanosoma agents” (Bioorg Med Chem, 2024).

Broadly, the IC50 is the concentration that gives 50% inhibition.

Series [1] in a line: Acute toxicity in CD1 mouse assessed as change in body weight at 50 mg/kg, po. Particulars: in vivo. It is filed as organism-based.
A short description of series [2]: Cytotoxicity against HEK293 cells assessed as reduction in cell viability after 48 hrs by MTT assay. Type of series: toxicity, cell-based. Particulars: human. (In general: Tetrazolium dyes change colour on reduction, which living cells bring about.)
Series [3] in a line: Cytotoxicity against mouse RAW264.7 cells assessed as reduction in cell viability after 48 hrs by MTT assay. Type of series: toxicity, cell-based.
The nature of series [4]: Selectivity index, ratio of IC50 for mouse RAW264.7 cells to IC50 for antitrypanosomal activity against bloodstream Trypanosoma brucei Lister 427. The conditions noted are these: read-out: Ratio IC50. It is filed as toxicity.
Series [5] in a line: Selectivity index, ratio of IC50 for HEK293 cells to IC50 for antitrypanosomal activity against bloodstream Trypanosoma brucei Lister 427. It is filed as toxicity. Particulars: human, read-out: Ratio IC50.
The test system of series [6] is Trypanosoma brucei. The series is described as follows: Antitrypanosomal activity against Trypanosoma brucei infected in CD1 mouse assessed as reduction in parasite number at 50 mg/kg/day, po administered for 3 days and measured on day 5 by hemocytometer analysis (reference value: 40 10^6/ml. Type of series: functional. The conditions noted are these: time 5 day.

For series [7], the system named is Trypanosoma brucei. The series is described as follows: Antitrypanosomal activity against bloodstream Trypanosoma brucei Lister 427 assessed as reduction in parasite viability incubated for 48 hrs by MTS assay. It is filed as functional, organism-based. The conditions noted are these: Lister 427, 48 h.

Consider `COc1cc(NC(=O)c2ccc3ccccc3c2)ccc1S(N)(=O)=O`, for which the Activity entry is “Non-Toxic” in series [1] and 10 10^6/ml with Trypanosoma brucei [6]. Further, the figures for the IC50 at 48 h in series [2] and in series [3] were 18 µM and 18.1 µM, respectively. Further, the selectivity ratio in series [4] is 18.1; in series [5], 17.9. Also, the IC50 in the series on Trypanosoma brucei [7] worked out at 1 µM.

Regarding `COc1cc(NC(=O)c2ccco2)ccc1S(N)(=O)=O`, the IC50 at 48 h in series [2] and in series [3] was greater than 100 µM throughout. Also, the selectivity ratio in series [4] and in series [5] was greater than 10.2 throughout. Moreover, the IC50 in the series on Trypanosoma brucei [7] worked out at 9.79 µM.

`COc1cc(NC(=O)c2cc(C(F)(F)F)cc(C(F)(F)F)c2)ccc1S(N)(=O)=O`: the IC50 at 48 h is 74.3 µM in series [2] and 46.3 µM in series [3]. Further, the selectivity ratio in series [4] was determined as 1.94; in series [5], 3.11. In addition, the IC50 with Trypanosoma brucei [7] turned out to be 23.9 µM.

For the compound `COc1cccc(C(=O)Nc2ccc(S(N)(=O)=O)c(OC)c2)c1`, the IC50 at 48 h was greater than 100 µM in series [2] and 113 µM in series [3]. Moreover, the selectivity ratio in series [4] is 38; in series [5], greater than 33.5. The IC50 in the series with Trypanosoma brucei [7] amounted to 2.99 µM.

In the case of `COc1cc(NC(=O)c2ccc(Cl)cc2)ccc1S(N)(=O)=O`, the IC50 at 48 h in series [2] is greater than 100 µM; in series [3], 43.9 µM. Besides, the selectivity ratio in series [4] is 0.94; in series [5] it was greater than 2.14. In addition, in the series with Trypanosoma brucei [7], the IC50 stood at 46.6 µM.

In the case of `COc1cc(NC(=O)c2cccc(Cl)c2)ccc1S(N)(=O)=O`, the IC50 at 48 h in series [2] is greater than 100 µM; in series [3], 91.5 µM. Also, the figures for the selectivity ratio in series [4] and in series [5] were 33.5 and greater than 36.6, respectively. Also, the IC50 in the series with Trypanosoma brucei [7] was 2.73 µM.

As for `COc1cc(NC(=O)c2cc(OC)c(OC)c(OC)c2)ccc1S(N)(=O)=O`, the IC50 at 48 h in series [2] came out at 32.9 µM; in series [3] it was 34.6 µM. The selectivity ratio stood at 0.38 in series [4] and 0.36 in series [5]. For the same compound, in the series on Trypanosoma brucei [7], the IC50 was 92.1 µM.

As for `COc1cc(NC(=O)c2cccc(I)c2)ccc1S(N)(=O)=O`, the values for the IC50 at 48 h in series [2] and in series [3] were 48.9 µM and greater than 100 µM, respectively. The selectivity ratio in series [4] is greater than 5.16; in series [5] it was 2.53. For the same compound, the IC50 in the series on Trypanosoma brucei [7] was 19.4 µM.

In the case of `COc1cc(NC(=O)c2cccc(C(F)(F)F)c2)ccc1S(N)(=O)=O`, the IC50 at 48 h in series [2] was greater than 100 µM; in series [3], 76.7 µM. The figures for the selectivity ratio in series [4] and in series [5] were 2.13 and greater than 2.78, respectively. The IC50 in the series on Trypanosoma brucei [7] worked out at 35.9 µM.

Turning to `COc1cc(NC(=O)c2ccc(Cl)c([N+](=O)[O-])c2)ccc1S(N)(=O)=O`, the IC50 at 48 h in series [2] turned out to be 15.7 µM; in series [3] it was 72.7 µM. The selectivity ratio was 4.77 in series [4] and 1.03 in series [5]. In addition, the IC50 in the series with Trypanosoma brucei [7] amounted to 15.2 µM.

`COc1cc(NC(=O)c2ccc(N(C)C)cc2)ccc1S(N)(=O)=O`: the IC50 at 48 h in series [2] and in series [3] was greater than 100 µM in each case. The IC50 with Trypanosoma brucei [7] is greater than 100 µM.

For the compound `COc1cc(NC(=O)c2ccccc2[N+](=O)[O-])ccc1S(N)(=O)=O`, the IC50 at 48 h in series [2] and in series [3] was greater than 100 µM in each case. The IC50 with Trypanosoma brucei [7] was greater than 100 µM.

Take `COc1cc(NC(=O)c2ccc(Cl)c(Cl)c2)ccc1S(N)(=O)=O`: the IC50 at 48 h in series [2] came to 22.4 µM; in series [3], 23.8 µM. Further, the selectivity ratio in series [4] is 0.62; in series [5] it was 0.58. Further, the IC50 in the series on Trypanosoma brucei [7] was 38.6 µM.

Take `COc1cc(NC(=O)COCC(=O)Nc2ccc(S(N)(=O)=O)c(OC)c2)ccc1S(N)(=O)=O`: the IC50 at 48 h in series [2] is 98 µM; in series [3] it was 81 µM. The selectivity ratio came out at 0.95 in series [4] and 1.15 in series [5]. The IC50 in the series with Trypanosoma brucei [7] stood at 85.2 µM.

Take `COc1cc(NC(=O)c2ccc(C#N)cc2)ccc1S(N)(=O)=O`: the IC50 at 48 h in series [2] and in series [3] was greater than 100 µM throughout. The selectivity ratio in series [4] and in series [5] was greater than 26.5 in each case. For the same compound, the IC50 in the series with Trypanosoma brucei [7] worked out at 4.23 µM.

Take `COc1cc(NC(=O)c2ccc(OC(F)(F)F)cc2)ccc1S(N)(=O)=O`: the IC50 at 48 h was 35.8 µM in series [2] and 33.8 µM in series [3]. Moreover, the selectivity ratio stood at 0.93 in series [4] and 0.99 in series [5]. Besides, the concentration for half-maximal inhibition (IC50) in the series with Trypanosoma brucei [7] stood at 36.3 µM.

Regarding `COc1cc(NC(=O)c2cccc(C#N)c2)ccc1S(N)(=O)=O`, the IC50 at 48 h in series [2] was greater than 100 µM; in series [3] it was 35 µM. Further, the results for the selectivity ratio in series [4] and in series [5] were 1.68 and greater than 4, respectively. The IC50 in the series on Trypanosoma brucei [7] is 20.8 µM.

As to `CCOc1ccc(C(=O)Nc2ccc(S(N)(=O)=O)c(OC)c2)cc1`, the IC50 at 48 h in series [2] and in series [3] was greater than 100 µM throughout. Also, the selectivity ratio in series [4] and in series [5] was greater than 37.3 in each case. The IC50 in the series on Trypanosoma brucei [7] turned out to be 2.68 µM.

On to `COc1cc(NC(=O)c2ccc(C(F)(F)F)cc2C(F)(F)F)ccc1S(N)(=O)=O`, for which the IC50 at 48 h in series [2] was greater than 100 µM; in series [3], 59.1 µM. The selectivity ratio in series [4] is 0.73; in series [5], greater than 1.22. Also, in the series with Trypanosoma brucei [7], the IC50 came out at 81.4 µM.

As to `COc1cc(NC(=O)c2ccc([N+](=O)[O-])cc2)ccc1S(N)(=O)=O`, the IC50 at 48 h in series [2] is greater than 100 µM; in series [3] it was 578 µM. For the same compound, the selectivity ratio in series [4] was 176; in series [5] it was greater than 30.4. For the same compound, the IC50 in the series with Trypanosoma brucei [7] came out at 3.29 µM.

With `COc1cc(NC(=O)c2ccc(SC)cc2)ccc1S(N)(=O)=O`, the IC50 at 48 h in series [2] is greater than 100 µM; in series [3], 19.6 µM. In addition, in series [4], the selectivity ratio is less than 0.2. Also, the IC50 in the series on Trypanosoma brucei [7] was greater than 100 µM.

Consider `COc1cc(NC(=O)c2ccc(C)c([N+](=O)[O-])c2)ccc1S(N)(=O)=O`, for which the IC50 at 48 h in series [2] is greater than 100 µM; in series [3], 53.1 µM. In series [5], the selectivity ratio was greater than 33.3. Moreover, in the series with Trypanosoma brucei [7], the IC50 turned out to be 7.76 µM.

Consider `COc1cc(NC(=O)c2cccc(C)c2)ccc1S(N)(=O)=O`, for which the IC50 at 48 h in series [2] and in series [3] was greater than 100 µM in each case. Further, the selectivity ratio in series [4] and in series [5] was greater than 3.22 each time. The IC50 in the series with Trypanosoma brucei [7] stood at 31 µM.

In the case of `COc1cc(NC(=O)c2ccc(C)cc2)ccc1S(N)(=O)=O`, the IC50 at 48 h in series [2] was found to be 17.2 µM; in series [3], 53.2 µM. Moreover, the selectivity ratio was 0.76 in series [4] and 0.24 in series [5]. The IC50 in the series on Trypanosoma brucei [7] turned out to be 70.4 µM.

Turning to `COc1cc(NC(=O)c2ccccn2)ccc1S(N)(=O)=O`, the IC50 at 48 h in series [2] and in series [3] was greater than 100 µM each time. Further, the IC50 in the series with Trypanosoma brucei [7] was greater than 100 µM.

For `COc1cc(NC(=O)c2ccc3c(c2)OCO3)ccc1S(N)(=O)=O`, the IC50 at 48 h came out at 8.8 µM in series [2] and 48.1 µM in series [3]. Moreover, the selectivity ratio was found to be 4.41 in series [4] and 0.81 in series [5]. In addition, the IC50 in the series on Trypanosoma brucei [7] came out at 10.9 µM.

As for `CCc1ccc(C(=O)Nc2ccc(S(N)(=O)=O)c(OC)c2)cc1`, the IC50 at 48 h in series [2] came out at 5.69 µM; in series [3], 23.9 µM. For the same compound, the selectivity ratio in series [4] came out at 0.64; in series [5] it was 0.15. For the same compound, the IC50 in the series on Trypanosoma brucei [7] was 37.2 µM.

In the case of `COc1cc(NC(=O)c2cccc(Br)c2)ccc1S(N)(=O)=O`, the IC50 at 48 h in series [2] was found to be 48.6 µM; in series [3], 20.9 µM. Further, the selectivity ratio in series [4] turned out to be 1.57; in series [5], 3.66. In the series on Trypanosoma brucei [7], the IC50 is 13.3 µM.

On to `COc1cc(NC(=O)c2cc(Cl)cc(Cl)c2)ccc1S(N)(=O)=O`, for which the IC50 at 48 h in series [2] was found to be 98 µM; in series [3] it was 81 µM. Moreover, the selectivity ratio in series [4] was less than 0.81; in series [5] it was less than 0.98. Further, the IC50 in the series on Trypanosoma brucei [7] is greater than 100 µM.

Consider `COc1cc(NC(=O)c2ccc(Br)cc2)ccc1S(N)(=O)=O`, for which the results for the IC50 at 48 h in series [2] and in series [3] were 86.8 µM and 48.3 µM, respectively. Moreover, the selectivity ratio in series [4] is 12.1; in series [5], 21.7. Further, the IC50 in the series with Trypanosoma brucei [7] is 3.26 µM.
